Experimental findings from patent publication US20160168118A1, “N-(5-QUINOLIN-6-YL)PYRIDIN-3-YL) BENZSULFAMIDE DERIVATIVES, PREPARATION METHOD AND THERAPEUTIC USE THEREOF” (SECOND MILITARY MEDICAL UNIVERSITY, PLA, priority 2012, published 2016) are described below.

SMILES strings stand for the structures. Values after ≈ are worked out from the molar mass of the structure shown. Read-outs that look alike come from different tables or passages of the source.

In data set [1] the test system is A549 (human lung cancer cells). The data set can be described thus: MTT assay, A549. It is filed as cell-based. The note with it: 72 h. Summed up:
(§1)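 Cells seeded at 4~5×10^4 cells/ml in DMEM with 5-10% FBS, treated after 24 h for 72 h at 37° C, 5% CO2, in duplicate wells. MTT (5 mg/ml) added for 4 h, formazan dissolved and OD read at 570 nm.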

Data set [2] relates to 60 kinds of human cancer cell lines. The experiment in a line: Cytotoxicity test on 60 kinds of human cancer cell lines from the US National Cancer Institute. Format: cell-based. An excerpt:
(§2) Cytotoxicity Test of Compound 9, 10 and 17 on 60 Kinds of Human Cancer Cell Lines from the US National Cancer Institute

For a further data set, the system named is PC3. The experiment in a line: NCI cytotoxicity test, PC3. It is filed as cell-based. The settings on record: Homo sapiens, PC-3.
From the text: as §2

In the next data set the test system is OVCAR3. The experiment in a line: NCI cytotoxicity test, OVCAR3. It is filed as cell-based. The settings on record: Homo sapiens, OVCAR-3.
From the text: as §2

The next data set has as its system COLO205. The data set can be described thus: NCI cytotoxicity test, COLO205. Format: cell-based. The settings on record: Homo sapiens, COLO 205.
From the text: as §2

Data set [3] has as its system HCT116 (human colon cancer cells). The data set can be described thus: MTT assay, HCT116. It is filed as cell-based. The settings on record: HCT-116, 72 h.
The test system of data set [4] is human lung carcinoma A549 xenografts. The experiment in a line: In vivo efficacy on human lung carcinoma A549 xenografts in nude mice. Also on record: species or system BALB/C nude mice. The settings on record: ig, GSK2126458 3 mg/kg, compound 9 10 mg/kg. The text has this:
Strain: BALB/C nude mice (SPF grade), Source: Shanghai Slac laboratory animal limited liability company, the production license number: SCXK (Shanghai) 2007-0005, the using license number: SYXK (Shanghai) 2009-0068, gender: male, weight: 18-20 g, the number of animals per group: 6.
A549 solid tumors which were well-grown were taken, cut to uniform bits of about 3 mm size under aseptic condition, every bit was inoculated to each mouse subcutaneously in the right armpit with trocar, and randomly divided into three groups, each treatment was:
1) Control (saline), gavage, the dose 25 ml/kg, 14 days;
3) Compound 9, gavage, the dose 10 mg/kg, 14 days;
Regrouped according to tumor size on the 13th day after inoculation, the animals of which tumor size is too large and too small were eliminated, the average tumor volume of each group are basically the same. Administration was carried out according to the above regimen; the dosing volume was 0.5 ml/20 g body weight. The axis (a), shorter diameter (b) of tumor was measured 2 times a week with an electronic digital caliper, calculate formula of tumor volume (tumor volume, TV) is as follows: TV=1/2×a×b2, calculate formula of relative tumor volume (relative tumor volume, RTV), is as follows: RTV=Vt/Vo, wherein Vo is the tumor volume measured at the time when dividing cages (i.e. dl), Vt is the tumor volume measured each time. […] T test was conducted. Animals were sacrificed 30 days after inoculation, dissected and the tumor mass were taken, tumor weight was measured.

In a further data set the test system is SN12C. The data set can be described thus: NCI cytotoxicity test, SN12C. Format: cell-based. The settings on record: Homo sapiens.
From the text: as §2

Data set [5] deals with U87MG (human brain star glioblastoma). The data set can be described thus: MTT assay, U87MG. Format: cell-based. The note with it: U-87 MG, 72 h. The essentials: as §1
The subject of a further data set is five human tumor cells. The data set can be described thus: MTT assay, five human tumor cells (summary in words). Format: cell-based. The settings on record: A549, HCT116, HepG2, ZR-75-30, U87MG. As for the experimental part: 1. Sample preparation: After dissolved with DMSO (Merck), PBS (−) was added to make 1000 μg/ml solution or a uniform suspension, and then diluted with PBS (−) containing the DMSO. Doxorubicin (DOX) was used as the positive control drug.
2. Cell Line • 1) A549 (human lung cancer cells); 2) HCT116 (human colon cancer cells); 3) HepG2 (human hepatoma cells); 4) ZR-75-30 (human breast cancer cells); 5) U87MG (human brain star glioblastoma)
DMEM+5-10% FBS+double resistant
MTT assay. 100 μl cell suspension was added at a concentration of 4˜5×10^4 cells/ml to each well of a 96-well plate, and was set at 37° C., 5% CO2 in the incubator. After 24 h, the sample solution was added, 10 μl/hole, double wells were set, 37° C., acting for 72 h at 5% CO2. […] of 5 mg/ml was added to each well, the dissolving liquid was added after acted for 4 h, 100 μl/hole, kept in the incubator, and read 570 nm OD with MK-2 automatic microplate reader after dissolution.

In the next data set the target is PI3K delta (Homo sapiens, UniProt O00329). The data set can be described thus: Kinase-Glo Luminescent Kinase Assay, PI3K delta. It is filed as biochemical.
PI3K delta, sequence (O00329 whole entry): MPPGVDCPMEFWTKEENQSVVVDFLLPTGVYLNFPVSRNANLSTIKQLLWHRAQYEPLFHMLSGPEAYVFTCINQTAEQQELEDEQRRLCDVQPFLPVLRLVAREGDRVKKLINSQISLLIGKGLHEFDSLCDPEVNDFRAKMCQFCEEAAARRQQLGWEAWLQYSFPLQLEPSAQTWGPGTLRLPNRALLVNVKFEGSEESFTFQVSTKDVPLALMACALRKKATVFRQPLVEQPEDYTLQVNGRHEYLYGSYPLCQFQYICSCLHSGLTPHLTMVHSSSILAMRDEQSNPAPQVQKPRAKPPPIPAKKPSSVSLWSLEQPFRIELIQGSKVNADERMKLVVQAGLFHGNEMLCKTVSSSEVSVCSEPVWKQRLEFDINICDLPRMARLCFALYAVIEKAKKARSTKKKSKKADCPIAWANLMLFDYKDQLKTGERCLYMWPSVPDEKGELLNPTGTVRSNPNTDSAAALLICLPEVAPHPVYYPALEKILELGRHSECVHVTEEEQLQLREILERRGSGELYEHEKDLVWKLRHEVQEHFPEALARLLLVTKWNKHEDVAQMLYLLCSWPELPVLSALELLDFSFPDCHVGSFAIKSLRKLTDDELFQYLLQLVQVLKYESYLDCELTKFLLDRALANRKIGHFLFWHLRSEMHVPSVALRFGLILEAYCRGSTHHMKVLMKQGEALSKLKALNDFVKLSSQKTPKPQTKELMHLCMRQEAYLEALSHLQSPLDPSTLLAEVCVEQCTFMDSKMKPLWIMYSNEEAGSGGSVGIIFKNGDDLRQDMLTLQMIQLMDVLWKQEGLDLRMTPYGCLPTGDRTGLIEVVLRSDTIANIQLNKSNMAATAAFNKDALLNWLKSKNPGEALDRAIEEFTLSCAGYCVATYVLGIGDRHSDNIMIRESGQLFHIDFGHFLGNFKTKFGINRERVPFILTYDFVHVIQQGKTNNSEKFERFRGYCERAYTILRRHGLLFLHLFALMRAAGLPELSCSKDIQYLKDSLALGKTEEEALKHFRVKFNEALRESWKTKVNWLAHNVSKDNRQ
PI3K delta, sequence (P27986 whole entry partner): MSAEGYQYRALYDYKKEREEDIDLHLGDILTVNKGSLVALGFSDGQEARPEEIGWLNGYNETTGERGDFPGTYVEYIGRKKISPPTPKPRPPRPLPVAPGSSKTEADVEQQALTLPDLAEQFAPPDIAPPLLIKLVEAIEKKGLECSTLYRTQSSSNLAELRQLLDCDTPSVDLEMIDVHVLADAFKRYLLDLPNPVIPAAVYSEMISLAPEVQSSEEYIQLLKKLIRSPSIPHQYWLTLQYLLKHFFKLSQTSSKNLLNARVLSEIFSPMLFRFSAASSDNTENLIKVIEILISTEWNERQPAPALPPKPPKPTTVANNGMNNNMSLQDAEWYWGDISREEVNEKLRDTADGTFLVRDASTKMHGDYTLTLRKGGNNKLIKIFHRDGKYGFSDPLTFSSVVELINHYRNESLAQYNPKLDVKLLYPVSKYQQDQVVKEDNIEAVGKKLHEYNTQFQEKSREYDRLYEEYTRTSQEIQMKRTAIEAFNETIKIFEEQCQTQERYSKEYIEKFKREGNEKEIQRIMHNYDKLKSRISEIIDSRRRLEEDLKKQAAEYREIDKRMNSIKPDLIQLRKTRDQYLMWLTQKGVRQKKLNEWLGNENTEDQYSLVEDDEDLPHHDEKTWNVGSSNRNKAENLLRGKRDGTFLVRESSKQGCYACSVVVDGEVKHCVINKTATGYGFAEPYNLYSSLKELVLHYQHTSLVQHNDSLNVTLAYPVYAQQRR

Take `COc1ncc(-c2ccc3nccc(-c4ccc(CN(C)C)cc4)c3c2)cc1NS(=O)(=O)c1ccc(F)cc1F` [Compound 9, N-(5-(4-(4-((dimethylamine)methyl)phenyl)quinolin-6-yl)-2-methoxypyridine-3-yl)-2,4-difluorobenzenesulfonamide]: the half-inhibitory concentration (IC50) is 2.47 ng/mL (≈ 4.41 nM) in data set [1], 1.69 ng/mL (≈ 3.01 nM) in [3], 51 ng/mL (≈ 91 nM) in [5] and 0.0038 µM on PI3K delta. Moreover, the GI50 is below 0.01 µM in data set [2] (on the 35 tumor cell lines, read-out: average half growth inhibitory concentration (GI50)); 0.0186 µM in data set [2] (on the 60 kinds of tumor cells, read-out: Average GI50); below 0.01 µM with PC3; below 0.01 µM in the data set with OVCAR3; 0.0135 µM in the data set with COLO205; below 0.01 µM in the data set with SN12C. For the same compound, the “Animal wight (g) (tumor removed)” value in data set [4] (at end) came out at 23.28 ± 1.34 g. The “RTV (d18) x ± SD” value in [4] (d18) is given as 5.37 ± 1.86. The “in vitro proliferation inhibition (in words)” value in the data set with five human tumor cells is recorded as “high in vitro proliferation inhibition”.
